The test has as its target T1, 5-lipoxygenase (Rattus norvegicus, UniProt P12527).
T1 construct: leukotriene B4 formation (LTB4) by 5-lipoxygenase ex-vivo in rat whole blood stimulated with calcium ionophore; from tissue
T1 sequence (P12527 1-673): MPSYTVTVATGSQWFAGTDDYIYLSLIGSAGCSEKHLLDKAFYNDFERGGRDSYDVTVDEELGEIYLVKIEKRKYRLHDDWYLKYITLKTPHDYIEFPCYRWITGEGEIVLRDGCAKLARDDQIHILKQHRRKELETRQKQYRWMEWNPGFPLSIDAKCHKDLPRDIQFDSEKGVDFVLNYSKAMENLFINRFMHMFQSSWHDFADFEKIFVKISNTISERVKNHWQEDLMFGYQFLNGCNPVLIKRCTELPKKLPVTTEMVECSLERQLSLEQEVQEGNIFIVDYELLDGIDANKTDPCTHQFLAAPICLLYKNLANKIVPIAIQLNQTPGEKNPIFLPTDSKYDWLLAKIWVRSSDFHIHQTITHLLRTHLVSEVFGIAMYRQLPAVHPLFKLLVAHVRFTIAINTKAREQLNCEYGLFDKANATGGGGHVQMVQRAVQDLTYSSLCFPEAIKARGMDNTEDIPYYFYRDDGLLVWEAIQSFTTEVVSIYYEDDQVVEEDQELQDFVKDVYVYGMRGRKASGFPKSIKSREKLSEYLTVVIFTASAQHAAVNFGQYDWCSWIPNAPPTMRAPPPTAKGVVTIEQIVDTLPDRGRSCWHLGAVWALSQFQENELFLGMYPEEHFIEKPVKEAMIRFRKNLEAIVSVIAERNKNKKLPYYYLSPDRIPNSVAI
As to the kind of experiment: Inhibitory activity over 5-lipoxygenase ex-vivo in rat whole blood (LTB4 by EIA). The conditions noted are these: for LTB4 (ng/ml), group mean / LTB4 (ng/ml), individual samples: blood 1 h after last dose, calcium ionophore 30 μM; for LTB4 (ng/ml), individual samples / LTB4 % inhib., individual samples: individual rats. The method, then: In the example shown 3 groups of animals (rats) were used, with 6 rats in each group. The groups were;
1 group 1: control (vehicle)
2 group 2: treated with micronized test substance (10 mg/Kg)
3 group 3: treated with non-micronized test substance (10 mg/Kg)
The distribution of animals to each group was done in a randomized manner at the start of the study.
The test and reference substances were administered orally as a suspension in 0.25% carboximethylcellulose in a dosing volume of 4 ml/kg via an oral cannula.
Test substance administration was carried out once every 24 hours (09 h 00 min) for 5 consecutive days. On the 5th day a blood sample was obtained from each animal (1 mL) 1 hour after administration of the test and reference substances. Blood samples were obtained from the posterior (abdominal) vena cava in sterile syringes containing sodium citrate (4%) as an anticoagulant. Each blood sample was divided into two 0.5 ml aliquots (duplicates). A 1 hour time lapse after test substance administration was used before obtaining the blood samples as it was determined in preliminary studies that this is when there is a greater inhibition of leukotriene synthesis by the test substance.
Immediately after collection of the blood samples, the duplicated aliquots were incubated at 37° C. for 10 min. After this time, the aliquots were stimulated with calcium ionophore (30 μM, final concentration) for 30 min at 37° C. Once the incubation period was over the aliquots were centrifuged at 12.000 g for 2 minutes. The resulting plasma was separated and stored at −20° C. for its posterior analysis. In these samples the concentration of leukotriene B4 was determined by enzyme immunoassay (kit EIA; Amersham).

Setting [1] is: 10 mg/Kg oral once daily 5 days, 10 mg/kg.
[2] abbreviates: 10 mg/Kg oral once daily 5 days, vs control, 10 mg/kg.

“And” between values parts separate entries of the source, which are not always exact repeats. Identical values can stand only once.

As for `Oc1c(I)cc(I)cc1I` [Micronized, 2,4,6-triiodophenol], where the note is “10 mg/kg, 5 days oral”, the “degree of LTB4 inhibition compared with the other form” value is “superior to that obtained with the non-micronized product”. The “inhibition of leukotriene B4 formation by 5-lipoxygenase ex-vivo (in words)” value (10 mg/kg, 5 days oral, P<0.05 ANOVA+Dunnett's test) is “inhibits, in a statistically significant manner”. Moreover, the “LTB4 (ng/ml), group mean” value (group mean, 6 rats, 10 mg/Kg oral once daily 5 days, 10 mg/kg) was 5.492 ng/mL. The “LTB4 (ng/ml), individual samples” value under setting [1] was 6.549 ng/mL and 5.032 ng/mL and 4.583 ng/mL and 6.118 ng/mL and 4.602 ng/mL and 6.067 ng/mL. Also, the “LTB4 % inhib., individual samples” value under setting [2] is 20.176% and 38.665% and 44.140% and 25.423% and 43.902% and 26.054%. Moreover, where the note is “rat, po, group mean, 6 rats, 10 mg/Kg oral once daily 5 days, vs control, read-out: LTB4 % inhib., group mean”, the inhibition at 10 mg/kg was 33.1%.

On to `Oc1c(I)cc(I)cc1I` [Non-Micronized, 2,4,6-triiodophenol], for which, under “group mean, 6 rats, 10 mg/Kg oral once daily 5 days, listed as S. Ref., 10 mg/kg”, the “LTB4 (ng/ml), group mean” value was 6.496 ng/mL. Also, the “LTB4 % inhib., group mean” value (group mean, 6 rats, 10 mg/Kg oral once daily 5 days, vs control, listed as S. Ref., 10 mg/kg) was determined as 20.818%. Moreover, under setting [1], the “LTB4 (ng/ml), individual samples” value was 6.862 ng/ml and 4.355 ng/ml (2×) and 4.905 ng/ml and 8.818 ng/ml and 9.682 ng/ml. The “LTB4 % inhib., individual samples” value under setting [2] is 16.356% and 46.917% and 40.210% and −7.480% and −18.013%.

The record behind these values is patent US7935853B2, “Micronized composition of a 2,4-disubstituted phenol derivative” (priority 2008, dated 2011).
